Read-outs that look alike come from different tables or passages of the source.
Legend:
[1] = Tolerability of CPT11 and Compound 2 with 12, 24 or 48 hour delay in naive mice (Example 4); format: in vivo; settings: single agent; CPT11 100 mg/kg IP Q10Dx2; Compound 2 25 mg/kg PO BID 3 days per cycle
[2] = test system: subcutaneous HT-29 xenografts; experiment: Tumor growth inhibition experiment with tolerability, CPT11 and Compound 1, simultaneous or 24 hour delay (Example 3); format: in vivo; settings: single agent; CPT11 100 mg/kg IP single dose; Compound 1 50 mg/kg PO BID 3 consecutive days
Protocol: (§1) Female nude mice were inoculated subcutaneously with 5 X 10^6 HT-29 tumor cells in 1X PBS (100 µL). Twelve days later, mice were randomized into groups of 6 with an average tumor volume in each group of approximately 250 mm^3. […] Tumor size and animal body weight were measured over the course of the study on the days indicated with data points in Figure 5. Tumor volume was calculated using the formula volume = (width^2 X length)/2.

[3] = test system: subcutaneous HT-29 xenografts; format: in vivo; settings: single agent; CPT11 100 mg/kg IP Q10Dx2; Compound 2 25 mg/kg PO BID
Protocol: as §1, with “in IX” for “in 1X”, “of 8” for “of 6”, “approximately 215” for “approximately 250”, “Figure 6.” for “Figure 5.”, “the formula:” for “the formula”

[4] = test system: subcutaneous HT-29 xenografts; experiment: Tumor growth inhibition experiment, CPT11 and Compound 5 (Example 12); format: in vivo; settings: for Growth Delay / Maximum % Body Weight Loss: single agent, CPT11 100 mg/kg IP Q10Dx2, Compound 5 PO BID 3 days, dose not given
Protocol: Female nude mice were inoculated subcutaneously with 4 X 10^6 HT-29 tumor cells in 1X PBS (100 µL). Twelve days later, mice were randomized into groups of 7 with an average tumor volume in each group of approximately 200 mm^3. […] Tumor size and animal body weight were measured over the course of the study on the days indicated with data points in Figure 13. Tumor volume was calculated using the formula: volume = (width^2 x length)/2. No mortalities occurred over the course of this study.

[5] = Compound 2 exposure in HT-29 tumor bearing mice after CPT11 (Example 6); format: in vivo, nude mice; settings: Compound 2 25 mg/kg PO, from 24 hours after CPT11 100 mg/kg; single dose vs 3 consecutive days BID; t-test > 0.05
[6] = test system: subcutaneous HT-29 xenografts; experiment: Tumor growth inhibition experiment, CPT11 and Compound 2 (Example 11); format: in vivo, nude mice; settings: in combination with CPT-11; Compound 2 10 or 25 mg/kg PO BID
Protocol: as §1, with “µL). Fourteen” for “µL). Twelve”, “of 8” for “of 6”, “approximately 260” for “approximately 250”, “Figure 12.” for “Figure 5.”, “the formula: volume=” for “the formula volume =”, “(width^2 x” for “(width^2 X”

[7] = test system: subcutaneous HT-29 xenografts; format: in vivo; settings: single agent; gemcitabine 140 mg/kg IP Q7Dx2; Compound 2 PO BID 3 days, dose not given
Protocol: Female nude mice were inoculated subcutaneously with 5 X 10^6 HT-29 tumor cells in IX PBS (100 µL). Fourteen days later, mice were randomized into groups of 8 with an average tumor volume in each group of approximately 260 mm^3. Sorted animals were administered gemcitabine (140 mg/kg; IP) on a Q7Dx2 cycles schedule. Compound 2 (10 or 25mg/kg: PO, BID) administration was initiated 24 hours post gemcitabine and endured for 3 days as indicated. Tumor size and animal body weight were measured over the course of the study on the days indicated with data points in Figure 9. Tumor volume was calculated using the formula: volume = (width^2 X length)/2. No mortalities occurred over the course of this study.

[8] = test system: phospho-cdc2; experiment: Inhibition of CPT11 induced phosphorylation of cdc2 in HT-29 tumors, immunoblot (Example 7); format: in vivo, nude mice; settings: extended dosing: 5, 10 or 25 mg/kg PO BID 3 consecutive days from 24 hours after CPT11 100 mg/kg IP; tumors harvested 96 hours post CPT11
Protocol: Female nude mice were inoculated subcutaneously with 5 X 10^6 HT-29 tumor cells in IX PBS (100 µL). Twenty nine days later, mice were randomized into groups of 3 with an average tumor volume in each group of approximately 500 mm^3. […] Compound 5 was given as a single dose at 25 mg/kg, or alternatively 5, 10, or 25 mg/kg doses were given for 3 consecutive days on BID schedules. […] Phosphorylation of cdc2 was assessed by immunoblot and normalized to total ERK expression. Results are expressed as POC.

[9] = test system: MiaPaCa2 pancreatic carcinoma xenografts; format: in vivo; settings: for % Tumor Growth Inhibition / Growth Delay: single agent, gemcitabine 120 mg/kg IP Q7Dx3, Compound 5 given as 10 mg/kg in table
Protocol: female nude mice were inoculated subcutaneously with 7 X 10^6 MiaPaCa2 tumor cells in a 1:1 1X PBS and matrigel suspension (100 µL). Fifteen days later, mice were randomized into groups of 7 with an average tumor volume in each group of approximately 315 mm^3. Sorted animals were administered gemcitabine (120 mg/kg; IP) on a Q7Dx3 cycles schedule. […] Tumor size and animals body weight were measured over the course of the study on the days indicated with data points in Figure 11. Tumor volume was calculated using the formula: volume = (width^2 X length)/2. No mortalities occurred over the course of this study.

[10] = test system: subcutaneous HT-29 xenografts; format: in vivo; settings: for Growth Delay: gemcitabine 120 mg/kg IP Q7Dx3
Protocol: Female nude mice were inoculated subcutaneously with 5 X 10^6 HT-29 tumor cells in IX PBS (100 µL). Fourteen days later, mice were randomized into groups of 7 with an average tumor volume in each group of approximately 200 mm^3. Sorted animals were administered gemcitabine (120 mg/kg; IP) on a Q7Dx3 cycles schedule. Compound 5 (5, 10 or 25mg/kg; PO. BID) administration was initiated 24 hours post gemcitabine and endured for 3 days as indicated. Tumor size and animal body weight were measured over the course of the study on the days indicated with data points in Figure 10. Tumor volume was calculated using the formula: volume = (width^2 X length)/2. No mortalities occurred over the course of this study.

[11] = single agent, Compound 5 10 mg/kg PO BID 3 days

| Structure (SMILES) | % Mortality [1] [%] | Maximum % Body Weight Loss [1] | Maximum % Body Weight Loss [2] | Growth Delay [3] [days] | Growth Delay [4] [days] | Maximum % Body Weight Loss [4] | Growth Delay [7] [days] | % Tumor Growth Inhibition [9] | Growth Delay [9] [days] | Growth Delay [10, 11] [days] | further results |
| --- | --- | --- | --- | --- | --- | --- | --- | --- | --- | --- | --- |
| CCc1c2c(nc3ccc(OC(=O)N4CCC(N5CCCCC5)CC4)cc13)-c1cc3c(c(=O)n1C2)COC(=O)[C@]3(O)CC [CPT11, irinotecan, reference compound] | 0 | 3.4. Day 14% | 3.9, Day 13% | 16 | 16.6 | 6.3, Day 18% | – | – | – | – | % Mortality [2]: 0% |
| N[C@@H]1CCCN(c2c(Br)cnc3[nH]cc(NC(=O)c4cccnc4)c23)C1 [Compound 1, (R)-N-(4-(3-aminopiperidin-1-yl)-5-bromo-1H-pyrrolo[2,3-b]pyridin-3-yl)nicotinamide] | – | – | 3.9, Day 13% | – | – | – | – | – | – | – | – |
| CC(C)C(=O)Nc1c[nH]c2ncc(Br)c(N3CCC[C@@H](N)C3)c12 [Compound 2, (R)-N-(4-(3-aminopiperidin-1-yl)-5-bromo-1H-pyrrolo[2,3-b]pyridin-3-yl)isobutyramide] | 0 | 0.3, Day 17% | – | 1.8 | – | – | 4.78 | – | – | – | exposure following a single dose or administration for 3 days [5]: not statistically_different; inhibition of tumor growth [6]: dose related inhibition of tumor growth; Maximum % Body Weight Loss [3]: 7.2, Dav 3% |
| N[C@@H]1CCCN(c2c(Br)cnc3[nH]cc(NC(=O)C4CC4)c23)C1 [Compound 5, (R)-N-(4-(3-aminopiperidin-1-yl)-5-bromo-1H-pyrrolo[2,3-b]pyridin-3-yl)cyclopropanecarboxamide] | – | – | – | – | 7.7 | 2.5, Dav 18% | – | 25,5% | 6.1 | 5.7 | inhibition of CPT11 induced phospho-cdc2 [8]: dose-related inhibition; tumor growth ([9]; in combination with gemcitabine, MiaPaCa2 pancreatic carcinoma xenografts): inhibits tumor growth; inhibition of tumor growth ([4]; in combination with CPT-11, Compound 5 5, 10 or 25 mg/kg PO BID): dose related inhibition of tumor growth; inhibition of tumor growth ([10]; in combination with gemcitabine, Compound 5 5, 10 or 25 mg/kg PO BID): dose related inhibition of tumor growth; % Regression [10, 11]: 31.6% |
| Nc1ccn([C@@H]2O[C@H](CO)[C@@H](O)C2(F)F)c(=O)n1 [Gemcitabine, gemcitabine, reference compound] | – | – | – | – | – | – | 4.39 | 6.6% | 2.2 | 11.5 | – |
